Key:
Type in all cases: biochemical
[1] = target: T1, Arabidopsis NR2 (NIA2, At1g37130) (Arabidopsis thaliana, UniProt P11035); assay: nitrate reductase activity with APADH, absorbance at […] nm; settings: electron donor replacing NADH, 0.1 mM; 10 mM potassium nitrate, 0.005 mM FAD, phosphate pH 7.5, 25 °C
T1 construct: commercial recombinant enzyme expressed and purified from Pichia pastoris
T1 sequence (P11035 1-917): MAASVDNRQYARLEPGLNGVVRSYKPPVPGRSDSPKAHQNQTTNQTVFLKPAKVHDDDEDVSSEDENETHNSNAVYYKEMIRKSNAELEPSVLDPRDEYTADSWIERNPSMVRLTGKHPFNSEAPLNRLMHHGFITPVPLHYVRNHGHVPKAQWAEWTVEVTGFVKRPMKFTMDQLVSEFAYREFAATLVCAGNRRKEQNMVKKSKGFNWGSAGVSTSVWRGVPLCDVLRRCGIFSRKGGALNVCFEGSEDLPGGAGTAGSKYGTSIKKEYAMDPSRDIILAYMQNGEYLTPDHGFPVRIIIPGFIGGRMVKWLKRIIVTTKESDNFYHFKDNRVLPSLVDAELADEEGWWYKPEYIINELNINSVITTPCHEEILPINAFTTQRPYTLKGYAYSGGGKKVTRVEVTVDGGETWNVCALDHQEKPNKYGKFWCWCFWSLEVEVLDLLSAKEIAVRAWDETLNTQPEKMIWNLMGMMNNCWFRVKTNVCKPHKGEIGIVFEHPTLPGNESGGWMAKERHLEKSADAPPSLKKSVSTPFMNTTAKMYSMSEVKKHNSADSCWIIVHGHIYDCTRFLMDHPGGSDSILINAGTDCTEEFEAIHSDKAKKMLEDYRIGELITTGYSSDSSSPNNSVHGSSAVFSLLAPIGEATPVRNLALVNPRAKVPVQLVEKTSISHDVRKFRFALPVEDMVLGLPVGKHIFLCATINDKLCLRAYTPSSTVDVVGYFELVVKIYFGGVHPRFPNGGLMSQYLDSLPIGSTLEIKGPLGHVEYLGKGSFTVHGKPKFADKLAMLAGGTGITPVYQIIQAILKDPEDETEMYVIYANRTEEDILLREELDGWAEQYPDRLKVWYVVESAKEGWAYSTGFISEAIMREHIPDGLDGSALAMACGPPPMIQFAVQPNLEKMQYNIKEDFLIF

[2] = target: T2, PDX3 (At5g49970) (Arabidopsis thaliana, UniProt Q9LTX3); assay: coupled spectrophotometric NADHX repair assay, […] and […] nm; settings: epimerization by NNRE domain; coupled to NNRD; 1 mM ATP, 2 mM MgCl2, 5 mM KCl, Tris-HCl pH 8, 25 °C; racemic NADHX
T2 construct: gene PPOX1; cDNA without predicted transit peptide (residues 2 to 73 removed), N-terminal His6 tag, pET-28a, E. coli BL21(DE3); NNRE and POX domains both present
T2 sequence (Q9LTX3 74-530): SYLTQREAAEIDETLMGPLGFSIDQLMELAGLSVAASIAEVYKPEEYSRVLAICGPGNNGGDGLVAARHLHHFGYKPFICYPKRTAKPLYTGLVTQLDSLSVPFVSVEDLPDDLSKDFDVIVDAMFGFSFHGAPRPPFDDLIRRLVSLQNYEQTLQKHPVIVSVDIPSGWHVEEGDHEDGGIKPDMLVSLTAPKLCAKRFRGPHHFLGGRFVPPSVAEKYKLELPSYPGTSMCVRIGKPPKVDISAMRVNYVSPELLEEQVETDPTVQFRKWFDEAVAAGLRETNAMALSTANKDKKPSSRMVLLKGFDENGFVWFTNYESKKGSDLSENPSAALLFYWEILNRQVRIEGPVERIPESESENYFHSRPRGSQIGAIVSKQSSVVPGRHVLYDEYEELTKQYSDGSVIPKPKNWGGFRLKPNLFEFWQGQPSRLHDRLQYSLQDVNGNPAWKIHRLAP

[3] = target: T3, NNRD (dehydratase) (Arabidopsis thaliana, UniProt Q94AF2); assay: spectrophotometric dehydratase assay, […] and […] nm; settings: 1 mM ATP, 2 mM MgCl2, 5 mM KCl, Tris-HCl pH 8, 25 °C; racemic NADHX
T3 construct: gene At5g19150; no transit peptide (residues 2 to 45 removed), C-terminal His6 tag, pET-24b, E. coli BL21(DE3); locus printed as At5g12150, probably a misprint of At5g19150
T3 sequence (Q94AF2 46-365): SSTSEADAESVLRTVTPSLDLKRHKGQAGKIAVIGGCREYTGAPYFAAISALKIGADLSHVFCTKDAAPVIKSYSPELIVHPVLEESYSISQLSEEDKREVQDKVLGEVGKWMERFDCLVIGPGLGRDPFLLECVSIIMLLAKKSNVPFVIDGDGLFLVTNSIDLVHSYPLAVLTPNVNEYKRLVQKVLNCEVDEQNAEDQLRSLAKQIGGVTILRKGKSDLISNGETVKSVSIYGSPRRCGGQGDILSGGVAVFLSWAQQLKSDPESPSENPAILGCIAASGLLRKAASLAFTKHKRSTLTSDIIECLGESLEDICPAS

CC(=O)C1=CN([C@@H]2O[C@H](COP(=O)(O)OP(=O)(O)OC[C@H]3O[C@@H](n4cnc5c(N)ncnc54)[C@H](O)[C@@H]3O)[C@@H](O)[C@H]2O)C=CC1 [APADH]
nitrate reductase activity with APADH, absorbance at 363 nm [1]: the latter was replaced with its analog, 3-acetylpyridine-adenine dinucleotide (APADH

NC(=O)C1=CN([C@@H]2O[C@H](COP(=O)(O)OP(=O)(O)OC[C@H]3O[C@@H](n4cnc5c(N)ncnc54)[C@H](O)[C@@H]3O)[C@@H](O)[C@H]2O)[C@H](O)CC1 (mixture of isomers) [(R)-NADHX]
coupled spectrophotometric NADHX repair assay, 290 and 340 nm [2]: leads to epimerization of (R)-NADHX in the racemate to (S)-NADHX by the NNRE domain

NC(=O)C1=CN([C@@H]2O[C@H](COP(=O)(O)OP(=O)(O)OC[C@H]3O[C@@H](n4cnc5c(N)ncnc54)[C@H](O)[C@@H]3O)[C@@H](O)[C@H]2O)[C@@H](O)CC1 (mixture of isomers) [(S)-NADHX]
spectrophotometric dehydratase assay, 290 and 340 nm [3]: (S)-NADHX within a racemic mixture of NADHX is dehydrated to NADH by NNRD

Source: article PMC10517258, “PYRIDOX(AM)INE 5′-PHOSPHATE OXIDASE3 of Arabidopsis thaliana maintains carbon/nitrogen balance in distinct environmental conditions” (Plant Physiology, 2023)
